Our source for the mortality values is patent US20100041700A1, “Substituted 1-(Azolin-2-yl)-Amino-1,2-Heterocyclyl-Ethane Compounds For Combating Pests” (BASF SE, priority 2006, published 2010).

As usually defined, the mortality is the share of the test organisms that died.

Test [1] has as its system Cowpea Aphid (Aphis craccivora). The test is described as follows: Cowpea aphid (Aphis craccivora) spray test on potted cowpea plants. It is filed as in vivo. Particulars: in comparison with untreated controls, population reduction recorded after 24, 72 and 120 hours, read-out: mortality against cowpea aphid. As to the method: B.1. Cowpea Aphid (Aphis craccivora)
The active compounds were formulated in 50:50 acetone:water. Potted cowpea plants colonized with 100-150 aphids of various stages were sprayed after the pest population has been recorded. Population reduction was recorded after 24, 72, and 120 hours.

For test [2], the system named is Green Peach Aphid (Myzus persicae). Briefly: Green peach aphid (Myzus persicae) leaf dip test on pepper plants. Particulars: foliar, 120 h, in comparison with untreated controls, determined after 5 days, read-out: mortality against green-peach aphid. It is filed as in vivo. The procedure:
B.2. Green Peach Aphid (Myzus persicae)
Pepper plants in the 2nd leaf-pair stage (variety ‘California Wonder’) were infested with approximately 40 laboratory-reared aphids by placing infested leaf sections on top of the test plants. The leaf sections were removed after 24 hours. The leaves of the intact plants were dipped into gradient solutions of the test compound. Aphid mortality on the treated plants, relative to mortality on check plants, was determined after 5 days.

For the compound `c1ccc(CC(NC2=NCCS2)c2cccs2)nc1` (stereo not drawn) [C.I.12], the mortality at 300 ppm in test [1] was > 80%.
Take `Brc1ccsc1C(Cc1ccncc1)NC1=NCCS1` (stereo not drawn) [C.I.10]: in test [2], the mortality at 300 ppm is > 80%.
`Cc1ccsc1C(Cc1ccncc1)NC1=NCCS1` (stereo not drawn) [C.I.9]: the mortality at 300 ppm in test [1] is > 80%.
